Laboratory results as given in patent US5789404A, “3-substituted 1-arylindole compounds” (H. Lundbeck A/S, priority 1993, dated 1998).
Where a name gives a salt, the structure may show the parent alone. Read-outs that look alike come from different tables or passages of the source.

What was measured:
dopamine D2 receptors = dopamine D2 receptors (Rattus norvegicus, UniProt P61169); test: biochemical; format: binding; settings: read-out: Dopamin D2 binding ^3 H spiroperidol, IC50
Description: Inhibition of ^3 H-Spiroperidol Binding to Dopamine D2 Receptors in Rat Corpus Striatum in vitro
By this method the inhibition by drugs of the binding of ^3 H-spiroperidol (0.5 nM) to dopamine D2 receptors in membranes from rat corpus striatum is determined in vitro.

5-HT2 receptors = molecular target: T1, 5-HT2 receptors (Rattus norvegicus, UniProt P14842); test: Inhibition of ^3 H-Ketanserin Binding to 5-HT2 Receptors in Rat Cortex in vitro; settings: ^3 H-Ketanserin 0,5 nM; rat cortex membranes; read-out: 5-HT2 binding ^3 H ketanserin, IC50
T1 construct: 5-HT2 Receptors in Rat Cortex in vitro; from tissue; host or cells: rat cortex membranes
T1 sequence (P14842 whole entry): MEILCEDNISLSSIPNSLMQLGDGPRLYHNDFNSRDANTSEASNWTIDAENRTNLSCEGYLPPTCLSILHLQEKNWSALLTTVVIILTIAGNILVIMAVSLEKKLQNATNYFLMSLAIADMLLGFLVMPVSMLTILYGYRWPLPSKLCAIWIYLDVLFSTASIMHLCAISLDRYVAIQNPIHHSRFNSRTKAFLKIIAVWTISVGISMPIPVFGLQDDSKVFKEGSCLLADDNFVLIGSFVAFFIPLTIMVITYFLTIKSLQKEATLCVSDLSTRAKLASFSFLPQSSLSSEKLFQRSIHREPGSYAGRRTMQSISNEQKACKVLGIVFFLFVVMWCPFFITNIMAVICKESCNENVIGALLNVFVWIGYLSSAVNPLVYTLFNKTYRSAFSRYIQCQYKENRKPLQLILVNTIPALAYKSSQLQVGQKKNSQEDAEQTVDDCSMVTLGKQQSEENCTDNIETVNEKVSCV
Description: Inhibition of ^3 H-Ketanserin Binding to 5-HT2 Receptors in Rat Cortex in vitro
By this method the inhibition by drugs of the binding of ^3 H-Ketanserin (0,5 nM) to 5-HT2 receptors in membranes from rat is determined in vitro. The method is described in Hyttel, Pharmacol. & Toxicol.

[1] = in vivo; cited from earlier work
[2] = in vivo; cited from earlier work; remark: listed apart in the source
[3] = in vivo; cited from earlier work; remark: listed apart in the source
[4] = in vivo; cited from earlier work; remark: listed apart in the source
[5] = in vivo; cited from earlier work; remark: listed apart in the source

Sequence of dopamine D2 receptors (P61169 whole entry): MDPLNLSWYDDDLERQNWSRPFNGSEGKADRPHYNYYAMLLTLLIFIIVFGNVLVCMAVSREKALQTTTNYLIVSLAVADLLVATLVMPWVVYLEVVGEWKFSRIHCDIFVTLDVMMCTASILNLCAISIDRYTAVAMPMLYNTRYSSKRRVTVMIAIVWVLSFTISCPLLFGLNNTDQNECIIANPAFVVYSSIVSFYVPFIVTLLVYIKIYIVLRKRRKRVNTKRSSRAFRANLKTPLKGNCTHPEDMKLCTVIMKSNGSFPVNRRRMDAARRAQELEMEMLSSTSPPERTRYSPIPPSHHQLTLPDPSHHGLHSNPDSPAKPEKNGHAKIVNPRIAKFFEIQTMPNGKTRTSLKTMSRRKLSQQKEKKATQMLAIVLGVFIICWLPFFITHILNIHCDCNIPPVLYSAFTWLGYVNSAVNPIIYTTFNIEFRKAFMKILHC

SMILES | IC50 (dopamine D2 receptors; ^3 H-spiroperidol 0.5 nM, rat corpus striatum membranes) | IC50 (5-HT2 receptors) | IC50 (dopamine D2 receptors) | quality of sleep [1] | antidepressant effect / depressive symptoms of schizophrenia [2] | abuse of alcohol and drugs [3] | neuroleptic-induced parkinsonism [4] | effects in an animal test indicative of anxiolytic drug activity [5]
CN(C)CCOc1cn(-c2ccc(F)cc2)c2cc(Cl)ccc12 [Compound 4j, N,N-Dimethyl-2-[6-chloro-1-(4-fluorophenyl)-3-1H-indolyloxy]ethylamine] | 63 nM | 17 nM |  |  |  |  |  | 
C[C@@H](COc1cn(-c2ccc(F)cc2)c2ccc(Cl)cc12)N(C)C [Compound 6a, (S)-N, N-Dimethyl-2-[5-chloro-1-(4-fluorophenyl) -3-1H-indolyloxy]-1-methylethylamine Oxalate] |  | 7.4 nM | 5.5 nM |  |  |  |  | 
Cc1nc2sccn2c(=O)c1CCN1CCC(=C(c2ccc(F)cc2)c2ccc(F)cc2)CC1 [ritanserin] |  |  |  | improve the quality of sleep | shown to be an antidepressant and to improve depressive symptoms of schizophrenia | reduce abuse of alcohol and drugs | relieve neuroleptic-induced parkinsonism | exert effects in an animal test indicative of anxiolytic drug activity
